Assay results taken from patent US20260356851A1, “TRICYCLIC COMPOUNDS AND USES THEREOF” (HUTCHMED LIMITED, priority 2023, published 2026).

How the values were obtained:
Assay type in all cases: cell-based
[1] = target: T1, pERK1/2 (Thr202/Tyr204), NCI-1H358 (KRAS G12C) (Homo sapiens, UniProt P01116, G12C); test: Assay of intracellular pERK1/2 (Thr202/Tyr204) phosphorylation in NCI-H358 cells (KRAS G12C); conditions: pERK1/2, 2 days, read-out: NCI-H358 (KRAS G12C) IC50
T1 construct: pERK1/2 HTRF read-out
How it was run: (§1)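 HTRF detection of Thr202/Tyr204-phosphorylated ERK1/2 (665/615 nm ratio) in lysates from cells treated 2 days with serially 3-fold diluted compound.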

[2] = target: T2, pERK1/2 (Thr202/Tyr204), NCI-1H441 (KRAS G12V) (Homo sapiens, UniProt P01116, G12V); test: Assay of intracellular pERK1/2 (Thr202/Tyr204) phosphorylation in NCI-H441 cells (KRAS G12V); conditions: pERK1/2, 2 days, read-out: NCI-H441 (KRAS G12V) IC50
T2 construct: pERK1/2 HTRF read-out
How it was run: as §1

[3] = target: T3, pERK1/2 (Thr202/Tyr204), PANC-1 (KRAS G121D) (Homo sapiens, UniProt P01116, G12D); test: Assay of intracellular pERK1/2 (Thr202/Tyr204) phosphorylation in PANC-1 cells (KRAS G12D); conditions: pERK1/2, 2 days, read-out: PANC-1 (KRAS G12D) IC50
T3 construct: pERK1/2 HTRF read-out
How it was run: as §1

T3 sequence (P01116 1-188 isoform P01116-2 G12D): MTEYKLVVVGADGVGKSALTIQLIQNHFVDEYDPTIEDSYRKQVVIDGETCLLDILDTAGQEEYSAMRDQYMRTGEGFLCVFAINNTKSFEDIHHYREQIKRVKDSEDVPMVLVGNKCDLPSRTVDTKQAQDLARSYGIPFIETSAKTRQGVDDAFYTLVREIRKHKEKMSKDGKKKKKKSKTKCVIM
T2 sequence (P01116 1-188 isoform P01116-2 G12V): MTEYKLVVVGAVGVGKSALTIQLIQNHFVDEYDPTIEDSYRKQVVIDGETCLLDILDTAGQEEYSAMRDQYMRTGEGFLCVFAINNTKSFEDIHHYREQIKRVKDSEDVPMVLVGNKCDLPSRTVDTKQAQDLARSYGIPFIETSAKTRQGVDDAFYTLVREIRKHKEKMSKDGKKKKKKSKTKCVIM
T1 sequence (P01116 1-188 isoform P01116-2 G12C): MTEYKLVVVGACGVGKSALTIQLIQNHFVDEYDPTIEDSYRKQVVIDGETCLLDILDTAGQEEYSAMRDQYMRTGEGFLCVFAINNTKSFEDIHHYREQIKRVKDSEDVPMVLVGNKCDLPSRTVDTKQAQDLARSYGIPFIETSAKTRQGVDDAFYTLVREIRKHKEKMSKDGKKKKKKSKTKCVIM

| SMILES | IC50 [1] [nM] | IC50 [2] [nM] | IC50 [3] [nM] |
| --- | --- | --- | --- |
| Cc1c(F)c(N)cc(-c2nc3c4c(nc(OCC56CC(F)CN5CC(F)C6)nc4c2F)N(C(C)c2cccnc2N)CCO3)c1C(F)(F)F (single isomer, unassigned; diastereomer 1) [Compound 241, (*)3-(1-(5-(5-amino-4-fluoro-3-methyl-2-(trifluoromethyl)phenyl)-2-(((2R or 2S,6R or 6S)-2,6-difluorotetrahydro-1H-pyrrolizin-7a(5H)-yl)methoxy)-4-fluoro-8,9-dihydro-10H-7-oxa-1,3,6,10-tetraazacyclohepta[de]naphthalen-10-yl)ethyl)pyridin-2-amine (diastereomer 1)] | 0.2 | 0.9 | 13 |
| Cc1c(F)c(N)cc(-c2nc3c4c(nc(OC[C@@]56CCCN5CC(F)(F)C6)nc4c2F)N(C(C)c2cccnc2N)CCO3)c1C(F)(F)F (stereo partly drawn) [Compound 171] | 0.5 | 2 | 27 |
| Cc1cc(N)cc(-c2nc3c4c(nc(N5CCC[C@H]5CO)nc4c2F)N(C(C)c2cccnc2N)CCO3)c1C(F)(F)F (single isomer, unassigned) [Compound 107] | 89 | > 100 | > 100 |
| Cc1c(F)c(N)cc(-c2nc3c4c(nc(OC[C@@H]5C[C@@H](F)CN5C)nc4c2F)N(C(C)c2cccnc2N)[C@@H](C)CO3)c1C(F)(F)F (single isomer, unassigned) [Compound 277, 3-((R or S)-1-((S)-5-(5-amino-4-fluoro-3-methyl-2-(trifluoromethyl)phenyl)-4-fluoro-2-(((2S,4R)-4-fluoro-1-methylpyrrolidin-2-yl)methoxy)-9-methyl-8,9-dihydro-10H-7-oxa-1,3,6,10-tetraazacyclohepta[de]naphthalen-10-yl)ethyl)pyridin-2-amine] | 93 | > 100 | > 100 |
| CC(c1cccnc1N)N1CCOc2nc(-c3cc(O)cc4ccc(F)c(F)c34)c(F)c3nc(OCC4(CN(C)C)CC4)nc1c23 (stereo not drawn) [Compound 7] | 8 | 33 | 238 |
| Cc1cc(N)cc(-c2nc3c4c(nc(OC[C@H]5CCCN5CCF)nc4c2F)N(C(C)c2cccnc2N)CCO3)c1C(F)(F)F (single isomer, unassigned) [Compound 78, 3-((R or S)-1-(5-(5-amino-3-methyl-2-(trifluoromethyl)phenyl)-4-fluoro-2-(((R)-1-(2-fluoroethyl)pyrrolidin-2-yl)methoxy)-8,9-dihydro-10H-7-oxa-1,3,6,10-tetraazacyclohepta[de]naphthalen-10-yl)ethyl)pyridin-2-amine] | 2 | 3 | 42 |
| [2H]C1([2H])CN(C(C)c2cccnc2N)c2nc(OC[C@@]34CCCN3C[C@H](F)C4)nc3c(F)c(-c4cc(N)c(F)c(C)c4C(F)(F)F)nc(c23)O1 (single isomer, unassigned) [Compound 184, 3-((R or S)-1-(5-(5-amino-4-fluoro-3-methyl-2-(trifluoromethyl)phenyl)-4-fluoro-2-(((2R,7aS)-2-fluorotetrahydro-1H-pyrrolizin-7a(5H)-yl)methoxy)-8,9-dihydro-10H-7-oxa-1,3,6,10-tetraazacyclohepta[de]naphthalen-10-yl-8,8-d2)ethyl)pyridin-2-amine] | 5 | 13 | 28 |
| Cc1cc(N)cc(-c2nc3c4c(nc(OC[C@@H]5CCCN5CCO)nc4c2F)N(C(C)c2cccnc2N)CCO3)c1C(F)(F)F (stereo partly drawn) [Compound 108] | 12 | 26 | > 100 |
| CC(c1cccnc1N)N1c2nc(OC[C@@]34CCCN3C[C@H](F)C4)nc3c(F)c(-c4ccc(F)c5sc(N)nc45)nc(c23)OC[C@@H]1C (stereo partly drawn) [Compound 320] | 0.9 | 4 | 28 |
| Cc1cc(N)cc(-c2nc3c4c(nc(OC[C@@H]5C[C@@H](F)CN5C)nc4c2F)N(C(C)c2cccnc2N)[C@@H](C)CO3)c1C(F)(F)F (single isomer, unassigned) [Compound 282, 3-((R or S)-1-((S)-5-(5-amino-3-methyl-2-(trifluoromethyl)phenyl)-4-fluoro-2-(((2S,4R)-4-fluoro-1-methylpyrrolidin-2-yl)methoxy)-9-methyl-8,9-dihydro-10H-7-oxa-1,3,6,10-tetraazacyclohepta[de]naphthalen-10-yl)ethyl)pyridin-2-amine] | 0.2 | 0.4 | 3 |
| COc1cc2cn[nH]c2cc1-c1nc2c3c(nc(OC[C@@]45CCCN4C[C@H](F)C5)nc3c1F)N(C(C)c1cccnc1N)[C@@H](C)CO2 (stereo partly drawn) [Compound 316] | > 100 | > 100 | > 100 |
| Cc1cc2[nH]ncc2c(-c2nc3c4c(nc(OCC5(CN(C)C)CC5)nc4c2F)N(C(C)c2cccnc2N)CCO3)c1C (stereo not drawn) [Compound 5] | 710 | > 1000 | > 1000 |
| CC[C@@H](c1cccnc1N)N1CCOc2nc(-c3cc(N)c(F)c(C)c3C(F)(F)F)c(F)c3nc(OC[C@@]45CCCN4C[C@H](F)C5)nc1c23 (single isomer, unassigned) [Compound 213, 3-((R or S)-1-(5-(5-amino-4-fluoro-3-methyl-2-(trifluoromethyl)phenyl)-4-fluoro-2-(((2R,7aS)-2-fluorotetrahydro-1H-pyrrolizin-7a(5H)-yl)methoxy)-8,9-dihydro-10H-7-oxa-1,3,6,10-tetraazacyclohepta[de]napthalen-10-yl)propyl)pyridin-2-amine] | 13 | 18 | > 100 |
| C#Cc1ccc2[nH]ncc2c1-c1nc2c3c(nc(OC[C@@]45CCCN4C[C@H](F)C5)nc3c1F)N(C(C)c1cccnc1N)CCO2 (stereo partly drawn) [Compound 60] | 518 | 806 | > 1000 |

Now from value to compound:

| IC50 [1] [nM] | IC50 [2] [nM] | IC50 [3] [nM] | SMILES |
| --- | --- | --- | --- |
| 31 | 34 | > 100 | CC(c1cccnc1N)N1CCOc2nc(-c3cc(O)cc(Cl)c3C3CC3)c(F)c3nc(OC[C@@H]4COCCN4C)nc1c23 (stereo partly drawn) [Compound 134] |
| 0.5 | 0.8 | 0.8 | CC(c1cccnc1N)N1c2nc(OC[C@@]34CCCN3C[C@H](F)C4)nc3c(F)c(-c4ccc(F)c5sc(N)c(C#N)c45)nc(c23)OC[C@@H]1C (stereo partly drawn) [Compound 328] |
| 60 | > 100 | > 100 | [2H]C([2H])(Oc1nc2c3c(nc(-c4cc(N)cc(C)c4C(F)(F)F)c(F)c3n1)OCCN2C(C)c1cccnc1N)[C@@H]1CCC([2H])([2H])N1C([2H])([2H])[2H] (single isomer, unassigned) [Compound 103, 3-((R or S)-1-(5-(5-amino-3-methyl-2-(trifluoromethyl)phenyl)-4-fluoro-2-(((S)-1-(methyl-d3)pyrrolidin-2-yl-5,5-d2)methoxy-d2)-8,9-dihydro-10H-7-oxa-1,3,6,10-tetraazacyclohepta[de]naphthalen-10-yl)ethyl)pyridin-2-amine] |
| 322 | 511 | > 1000 | CC(c1cccnc1N)N1CCOc2nc(-c3cc(O)cc(Cl)c3C3CC3)c(F)c3nc(OC[C@@H]4CC(F)(F)CN4C)nc1c23 (single isomer, unassigned) [Compound 55, 3-(10-((R or S)-1-(2-aminopyridin-3-yl)ethyl)-2-(((S)-4,4-difluoro-1-methylpyrrolidin-2-yl)methoxy)-4-fluoro-9,10-dihydro-8H-7-oxa-1,3,6,10-tetraazacyclohepta[de]naphthalen-5-yl)-5-chloro-4-cyclopropylphenol] |
| > 1000 | > 1000 | > 1000 | CC(c1cccnc1N)N1CCOc2nc(-c3cc(O)cc(F)c3C3CC3)c(F)c3nc(OC[C@@H]4CC(F)(F)CN4C)nc1c23 (single isomer, unassigned) [Compound 48, 3-(10-((R or S)-1-(2-aminopyridin-3-yl)ethyl)-2-(((S)-4,4-difluoro-1-methylpyrrolidin-2-yl)methoxy)-4-fluoro-9,10-dihydro-8H-7-oxa-1,3,6,10-tetraazacyclohepta[de]naphthalen-5-yl)-4-cyclopropyl-5-fluorophenol] |
| 0.3 | 0.4 | 0.2 | CCc1c(F)ccc2cc(O)cc(-c3nc4c5c(nc(OC[C@@]67CCCN6C[C@H](F)C7)nc5c3F)N(C(C)c3cccnc3N)[C@@H](C)CO4)c12 (single isomer, unassigned) [Compound 279, 4-((S)-10-((R or S)-1-(2-aminopyridin-3-yl)ethyl)-4-fluoro-2-(((2R,7aS)-2-fluorotetrahydro-1H-pyrrolizin-7a(5H)-yl)methoxy)-9-methyl-9,10-dihydro-8H-7-oxa-1,3,6,10-tetraazacyclohepta[de]naphthalen-5-yl)-5-ethyl-6-fluoronaphthalen-2-ol] |
| 0.2 | 0.5 | 0.3 | C#Cc1c(F)ccc2cc(O)cc(-c3nc4c5c(nc(OC[C@@H]6C[C@@H](F)CN6C)nc5c3F)N(C(C)c3cccnc3N)[C@@H](C)CO4)c12 (single isomer, unassigned) [Compound 284, 4-((S)-10-((R or S)-1-(2-aminopyridin-3-yl)ethyl)-4-fluoro-2-(((2S,4R)-4-fluoro-1-methylpyrrolidin-2-yl)methoxy)-9-methyl-9,10-dihydro-8H-7-oxa-1,3,6,10-tetraazacyclohepta[de]naphthalen-5-yl)-5-ethynyl-6-fluoronaphthalen-2-ol] |
| 3 | 6 | 36 | Cc1cc(N)cc(-c2nc3c4c(nc(OCC56CCCN5CCC6)nc4c2F)N(C(C)c2cccnc2N)CCO3)c1C(F)(F)F (stereo not drawn) [Compound 87] |
